Results from doi:10.1101/2024.08.19.608619, “Discovery of potent SARS-CoV-2 nsp3 macrodomain inhibitors uncovers lack of translation to cellular antiviral response” (bioRxiv, 2024).
In brackets after ≈: the same amount, converted by molar mass. Read-outs that look alike come from different tables or passages of the source.

Legend:
[1] = LogD; conditions: pH 7.4, In vitro LogD
[2] = target: CDK2/cyclinA(h) (Homo sapiens, UniProt P24941); test: biochemical; parameters: In vitro kinase panel profiling, per cent remaining kinase activity at 10 uM; conditions: atp_concentration=45, read-out: % of control remaining
From the text: (§1) We derisk potential for off-target activity by profiling the compound in a CEREP panel, a standard secondary pharmacology assessment, as well as a kinase panel to derisk a potential hinge-binding motif in our leads, and a PARP panel to derisk activity against human […]. Reassuringly, the compounds are selective, with the only off-targets being moderate human CHRM2 and KOR receptors activity associated with ASAP-0011198.

[3] = target: T1, GSK3β(h) (Homo sapiens, UniProt P49841); test: biochemical; parameters: In vitro kinase panel profiling, per cent remaining kinase activity at 10 uM; conditions: atp_concentration=15, read-out: % of control remaining
T1 construct: gene GSK3B
T1 sequence (P49841 whole entry): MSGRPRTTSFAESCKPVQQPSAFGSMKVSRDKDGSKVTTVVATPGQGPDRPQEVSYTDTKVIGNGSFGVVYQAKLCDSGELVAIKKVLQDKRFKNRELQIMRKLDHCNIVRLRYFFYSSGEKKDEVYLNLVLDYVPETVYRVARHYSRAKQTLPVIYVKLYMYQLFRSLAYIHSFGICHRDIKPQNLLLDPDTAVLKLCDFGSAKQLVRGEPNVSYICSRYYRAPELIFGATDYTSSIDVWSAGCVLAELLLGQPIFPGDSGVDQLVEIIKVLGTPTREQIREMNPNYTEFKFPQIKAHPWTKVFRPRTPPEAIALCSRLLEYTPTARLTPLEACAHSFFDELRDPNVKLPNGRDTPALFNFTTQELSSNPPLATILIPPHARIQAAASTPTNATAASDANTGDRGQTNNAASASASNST
From the text: as §1

[4] = target: T2, IRAK4(h) (Homo sapiens, UniProt Q9NWZ3); test: biochemical; parameters: In vitro kinase panel profiling, per cent remaining kinase activity at 10 uM; conditions: atp_concentration=200, read-out: % of control remaining
T2 sequence (Q9NWZ3 1-460): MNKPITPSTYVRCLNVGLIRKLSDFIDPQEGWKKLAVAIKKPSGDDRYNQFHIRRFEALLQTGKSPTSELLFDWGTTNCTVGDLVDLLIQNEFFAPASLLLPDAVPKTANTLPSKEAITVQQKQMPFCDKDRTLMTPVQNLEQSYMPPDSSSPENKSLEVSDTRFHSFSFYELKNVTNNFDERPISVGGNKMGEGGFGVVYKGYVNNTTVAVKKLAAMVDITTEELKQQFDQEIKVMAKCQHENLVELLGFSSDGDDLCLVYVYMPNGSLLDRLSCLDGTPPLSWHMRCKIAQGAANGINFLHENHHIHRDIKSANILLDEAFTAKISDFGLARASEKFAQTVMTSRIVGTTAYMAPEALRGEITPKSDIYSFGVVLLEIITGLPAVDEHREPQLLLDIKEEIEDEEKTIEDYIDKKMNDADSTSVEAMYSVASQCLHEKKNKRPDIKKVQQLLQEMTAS
From the text: as §1

[5] = target: KDR(h) (Homo sapiens, UniProt P35968); test: biochemical; parameters: In vitro kinase panel profiling, per cent remaining kinase activity at 10 uM; conditions: atp_concentration=90, read-out: % of control remaining
Sequence of KDR(h) (P35968 whole entry): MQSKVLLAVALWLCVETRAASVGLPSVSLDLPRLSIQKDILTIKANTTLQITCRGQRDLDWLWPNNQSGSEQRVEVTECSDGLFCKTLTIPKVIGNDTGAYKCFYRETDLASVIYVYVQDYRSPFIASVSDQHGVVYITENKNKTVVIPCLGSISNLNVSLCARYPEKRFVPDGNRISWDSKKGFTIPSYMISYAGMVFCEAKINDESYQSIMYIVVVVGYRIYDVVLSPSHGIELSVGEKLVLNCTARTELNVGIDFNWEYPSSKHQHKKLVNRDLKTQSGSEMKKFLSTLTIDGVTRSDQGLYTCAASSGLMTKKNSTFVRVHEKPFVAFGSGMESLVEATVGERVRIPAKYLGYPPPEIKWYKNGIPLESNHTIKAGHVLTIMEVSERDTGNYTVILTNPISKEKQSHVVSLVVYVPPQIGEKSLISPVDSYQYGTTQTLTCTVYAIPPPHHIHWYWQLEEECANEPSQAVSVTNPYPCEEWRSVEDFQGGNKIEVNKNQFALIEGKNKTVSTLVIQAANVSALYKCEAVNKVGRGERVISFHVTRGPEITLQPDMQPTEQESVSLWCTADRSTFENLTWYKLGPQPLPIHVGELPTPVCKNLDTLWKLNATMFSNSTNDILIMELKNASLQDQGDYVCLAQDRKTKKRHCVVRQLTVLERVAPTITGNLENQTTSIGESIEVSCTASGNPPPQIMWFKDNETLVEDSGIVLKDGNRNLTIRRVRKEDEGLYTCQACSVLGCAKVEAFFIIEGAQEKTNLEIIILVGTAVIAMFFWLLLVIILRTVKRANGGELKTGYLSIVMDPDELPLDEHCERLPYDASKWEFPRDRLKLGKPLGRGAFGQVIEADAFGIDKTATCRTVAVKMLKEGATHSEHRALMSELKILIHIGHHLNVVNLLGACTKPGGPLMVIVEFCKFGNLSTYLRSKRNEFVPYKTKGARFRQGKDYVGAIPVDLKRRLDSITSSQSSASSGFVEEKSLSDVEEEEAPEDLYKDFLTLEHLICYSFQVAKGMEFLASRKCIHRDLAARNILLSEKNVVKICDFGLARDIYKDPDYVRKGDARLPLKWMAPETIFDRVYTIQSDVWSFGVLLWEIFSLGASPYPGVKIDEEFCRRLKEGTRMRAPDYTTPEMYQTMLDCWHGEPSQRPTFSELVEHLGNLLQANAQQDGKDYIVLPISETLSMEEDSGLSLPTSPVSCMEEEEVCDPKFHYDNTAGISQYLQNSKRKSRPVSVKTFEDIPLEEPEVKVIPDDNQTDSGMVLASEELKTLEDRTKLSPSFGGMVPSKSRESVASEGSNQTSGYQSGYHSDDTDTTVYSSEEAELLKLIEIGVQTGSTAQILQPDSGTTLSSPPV
From the text: as §1

[6] = target: T3, MLK1(h) (Homo sapiens, UniProt P80192); test: biochemical; parameters: In vitro kinase panel profiling, per cent remaining kinase activity at 10 uM; conditions: atp_concentration=45, read-out: % of control remaining
T3 construct: gene MAP3K9
T3 sequence (P80192 whole entry): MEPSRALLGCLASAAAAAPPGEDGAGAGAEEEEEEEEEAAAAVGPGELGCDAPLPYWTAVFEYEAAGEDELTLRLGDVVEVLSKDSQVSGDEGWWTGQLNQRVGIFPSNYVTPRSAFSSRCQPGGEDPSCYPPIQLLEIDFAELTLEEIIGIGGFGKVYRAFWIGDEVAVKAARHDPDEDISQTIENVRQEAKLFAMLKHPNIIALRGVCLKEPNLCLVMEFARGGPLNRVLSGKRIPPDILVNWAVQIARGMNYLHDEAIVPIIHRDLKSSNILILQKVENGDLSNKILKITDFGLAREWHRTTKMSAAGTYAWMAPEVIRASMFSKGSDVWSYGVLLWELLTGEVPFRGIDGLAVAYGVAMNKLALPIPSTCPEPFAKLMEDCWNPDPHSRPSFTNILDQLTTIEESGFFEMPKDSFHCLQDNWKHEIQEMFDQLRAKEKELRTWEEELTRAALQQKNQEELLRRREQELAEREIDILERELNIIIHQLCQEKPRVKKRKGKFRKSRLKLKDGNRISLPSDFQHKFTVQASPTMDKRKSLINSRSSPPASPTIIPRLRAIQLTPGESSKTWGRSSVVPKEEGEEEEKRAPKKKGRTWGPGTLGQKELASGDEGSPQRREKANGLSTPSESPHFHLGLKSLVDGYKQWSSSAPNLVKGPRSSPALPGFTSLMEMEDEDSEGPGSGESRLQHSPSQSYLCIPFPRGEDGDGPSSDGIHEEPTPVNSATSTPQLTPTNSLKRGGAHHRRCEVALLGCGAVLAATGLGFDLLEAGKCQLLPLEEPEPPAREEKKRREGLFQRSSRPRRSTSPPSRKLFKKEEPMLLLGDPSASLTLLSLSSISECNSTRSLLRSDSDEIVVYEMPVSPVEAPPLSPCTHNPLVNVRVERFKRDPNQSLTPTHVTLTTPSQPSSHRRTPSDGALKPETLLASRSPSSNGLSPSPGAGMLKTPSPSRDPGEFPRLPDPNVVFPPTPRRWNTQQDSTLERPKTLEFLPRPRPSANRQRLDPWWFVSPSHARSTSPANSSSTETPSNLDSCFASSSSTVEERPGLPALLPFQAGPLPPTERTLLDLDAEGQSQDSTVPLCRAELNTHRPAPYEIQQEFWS
From the text: as §1

[7] = target: T4, PDGFRβ(h) (Homo sapiens, UniProt P09619); test: biochemical; parameters: In vitro kinase panel profiling, per cent remaining kinase activity at 10 uM; conditions: atp_concentration=200, read-out: % of control remaining
T4 construct: gene PDGFRB
T4 sequence (P09619 whole entry): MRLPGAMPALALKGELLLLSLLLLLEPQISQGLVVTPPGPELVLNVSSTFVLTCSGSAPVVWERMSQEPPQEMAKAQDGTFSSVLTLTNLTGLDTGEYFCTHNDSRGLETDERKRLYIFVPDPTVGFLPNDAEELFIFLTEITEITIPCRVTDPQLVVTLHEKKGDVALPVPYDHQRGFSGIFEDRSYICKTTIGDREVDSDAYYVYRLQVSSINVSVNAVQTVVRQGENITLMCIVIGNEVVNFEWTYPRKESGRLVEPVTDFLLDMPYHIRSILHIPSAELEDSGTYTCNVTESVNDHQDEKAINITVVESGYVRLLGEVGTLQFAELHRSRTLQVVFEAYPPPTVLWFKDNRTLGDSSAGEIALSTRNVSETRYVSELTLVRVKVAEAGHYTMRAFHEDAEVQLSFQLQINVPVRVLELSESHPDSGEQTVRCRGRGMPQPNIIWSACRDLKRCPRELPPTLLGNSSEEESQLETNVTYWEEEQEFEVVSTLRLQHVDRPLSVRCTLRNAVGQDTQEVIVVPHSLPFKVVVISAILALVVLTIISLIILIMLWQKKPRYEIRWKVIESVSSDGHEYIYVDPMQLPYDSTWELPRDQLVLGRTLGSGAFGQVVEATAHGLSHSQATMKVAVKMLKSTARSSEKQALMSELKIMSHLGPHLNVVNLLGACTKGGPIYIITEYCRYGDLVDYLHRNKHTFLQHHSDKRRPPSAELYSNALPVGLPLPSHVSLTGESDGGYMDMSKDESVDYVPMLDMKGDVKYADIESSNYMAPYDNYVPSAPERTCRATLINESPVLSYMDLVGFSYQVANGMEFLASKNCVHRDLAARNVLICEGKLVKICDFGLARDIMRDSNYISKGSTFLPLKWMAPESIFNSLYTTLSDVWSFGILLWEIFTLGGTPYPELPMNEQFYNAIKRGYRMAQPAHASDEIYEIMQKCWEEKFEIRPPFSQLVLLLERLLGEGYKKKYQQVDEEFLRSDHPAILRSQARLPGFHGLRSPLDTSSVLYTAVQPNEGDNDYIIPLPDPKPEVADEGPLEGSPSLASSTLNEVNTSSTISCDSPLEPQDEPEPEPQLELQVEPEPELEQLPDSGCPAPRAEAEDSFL
From the text: as §1

[8] = target: T5, PKA(h) (Homo sapiens, UniProt P17612); test: biochemical; parameters: In vitro kinase panel profiling, per cent remaining kinase activity at 10 uM; conditions: atp_concentration=10, read-out: % of control remaining
T5 construct: gene PRKACA
From the text: as §1

[9] = target: T6, PRAK(h) (Homo sapiens, UniProt Q8IW41); test: biochemical; parameters: In vitro kinase panel profiling, per cent remaining kinase activity at 10 uM; conditions: atp_concentration=15, read-out: % of control remaining
T6 construct: gene MAPKAPK5
T6 sequence (Q8IW41 1-473): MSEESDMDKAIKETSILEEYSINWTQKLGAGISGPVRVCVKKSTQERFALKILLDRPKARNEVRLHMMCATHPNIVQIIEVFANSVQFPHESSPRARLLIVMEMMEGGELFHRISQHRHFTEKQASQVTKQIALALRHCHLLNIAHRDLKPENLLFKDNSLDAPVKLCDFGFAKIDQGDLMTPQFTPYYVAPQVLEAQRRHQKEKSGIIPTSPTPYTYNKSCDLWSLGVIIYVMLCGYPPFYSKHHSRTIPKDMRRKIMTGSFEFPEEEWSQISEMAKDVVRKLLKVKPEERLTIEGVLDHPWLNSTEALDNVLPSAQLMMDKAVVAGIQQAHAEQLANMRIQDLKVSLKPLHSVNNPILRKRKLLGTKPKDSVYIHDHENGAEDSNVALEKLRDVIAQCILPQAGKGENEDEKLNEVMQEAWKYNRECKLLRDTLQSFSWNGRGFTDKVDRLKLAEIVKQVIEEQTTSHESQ
From the text: as §1

[10] = target: T7, Rsk1(h) (Homo sapiens, UniProt Q15418); test: biochemical; parameters: In vitro kinase panel profiling, per cent remaining kinase activity at 10 uM; conditions: atp_concentration=45, read-out: % of control remaining
T7 construct: gene RPS6KA1
T7 sequence (Q15418 whole entry): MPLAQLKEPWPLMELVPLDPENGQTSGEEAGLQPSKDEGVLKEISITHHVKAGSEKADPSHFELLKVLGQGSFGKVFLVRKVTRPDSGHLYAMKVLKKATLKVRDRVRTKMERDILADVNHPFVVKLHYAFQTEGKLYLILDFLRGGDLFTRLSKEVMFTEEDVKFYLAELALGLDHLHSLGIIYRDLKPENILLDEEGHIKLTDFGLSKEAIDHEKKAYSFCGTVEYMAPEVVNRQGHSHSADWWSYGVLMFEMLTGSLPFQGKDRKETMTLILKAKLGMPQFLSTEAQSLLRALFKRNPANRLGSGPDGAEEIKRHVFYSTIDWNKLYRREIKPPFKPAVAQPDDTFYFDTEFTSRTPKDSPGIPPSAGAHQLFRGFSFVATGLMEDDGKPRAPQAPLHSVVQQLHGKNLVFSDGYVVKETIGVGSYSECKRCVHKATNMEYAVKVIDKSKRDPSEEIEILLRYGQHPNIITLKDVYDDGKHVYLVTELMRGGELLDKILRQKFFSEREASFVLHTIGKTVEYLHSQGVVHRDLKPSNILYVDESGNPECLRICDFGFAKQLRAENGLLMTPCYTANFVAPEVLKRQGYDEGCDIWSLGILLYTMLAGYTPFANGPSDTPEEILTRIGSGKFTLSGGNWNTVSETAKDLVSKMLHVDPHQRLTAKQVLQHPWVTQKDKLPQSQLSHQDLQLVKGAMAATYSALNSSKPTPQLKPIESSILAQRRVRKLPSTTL
From the text: as §1

[11] = target: T8, TAK1(h) (Homo sapiens, UniProt O43318); test: biochemical; parameters: In vitro kinase panel profiling, per cent remaining kinase activity at 10 uM; conditions: atp_concentration=45, read-out: % of control remaining
T8 construct: gene MAP3K7
T8 sequence (O43318 1-606): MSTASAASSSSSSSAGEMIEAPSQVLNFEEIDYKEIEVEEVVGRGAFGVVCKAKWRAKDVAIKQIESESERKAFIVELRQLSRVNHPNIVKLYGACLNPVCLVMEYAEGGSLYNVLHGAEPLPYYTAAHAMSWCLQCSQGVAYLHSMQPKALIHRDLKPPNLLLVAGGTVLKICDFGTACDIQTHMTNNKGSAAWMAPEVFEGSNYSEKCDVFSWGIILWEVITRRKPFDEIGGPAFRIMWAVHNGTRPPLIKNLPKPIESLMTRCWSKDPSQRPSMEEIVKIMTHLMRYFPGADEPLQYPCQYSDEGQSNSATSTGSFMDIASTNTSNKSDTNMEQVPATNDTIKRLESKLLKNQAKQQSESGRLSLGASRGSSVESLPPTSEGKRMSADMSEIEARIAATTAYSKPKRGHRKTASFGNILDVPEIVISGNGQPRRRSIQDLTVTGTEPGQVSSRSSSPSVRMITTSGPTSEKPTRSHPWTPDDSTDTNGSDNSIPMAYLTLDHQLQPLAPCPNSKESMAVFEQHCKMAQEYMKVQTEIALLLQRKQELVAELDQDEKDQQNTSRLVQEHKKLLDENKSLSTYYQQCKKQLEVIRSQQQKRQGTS
From the text: as §1

[12] = In vitro kinetic solubility; conditions: In vitro kinetic solubility, ph 7.4

`CC(C)C(Nc1ncnc2[nH]ccc12)c1ccc2c(c1)S(=O)(=O)CCC2` (stereo not drawn) [ASAP-0008327] gave a logd ([1]; pH 7.4, logd) of 2.5, a remaining activity at 10 µM ([2]; batch_name=ASAP-0008327-001) of 96% and a remaining activity at 10 µM ([3]; batch_name=ASAP-0008327-001) of 107%. The remaining activity at 10 µM ([4]; batch_name=ASAP-0008327-001) was 88%, the remaining activity at 10 µM ([5]; batch_name=ASAP-0008327-001) was 82% and the remaining activity at 10 µM ([6]; batch_name=ASAP-0008327-001) was 81%. For the same molecule, the remaining activity at 10 µM ([7]; batch_name=ASAP-0008327-001) was 99%, the remaining activity at 10 µM ([8]; batch_name=ASAP-0008327-001) was 98% and the remaining activity at 10 µM ([9]; batch_name=ASAP-0008327-001) was 107%. It also gave a remaining activity at 10 µM ([10]; batch_name=ASAP-0008327-001) of 92%, a remaining activity at 10 µM ([11]; batch_name=ASAP-0008327-001) of 83% and a solubility ([12]; pH 7.4, solubility_mean) of 385 µM (≈ 143 µg/mL).

`CC(C)[C@H](Nc1ncnc2[nH]c(-c3cnn(C)c3C#N)cc12)c1ccc2c(n1)OCCO2` [ASAP-0010715] showed a logd [1] of 3.7, a remaining activity at 10 µM ([2]; batch_name=ASAP-0010715-002) of 104% and a remaining activity at 10 µM ([3]; batch_name=ASAP-0010715-002) of 98%. For the same molecule, the remaining activity at 10 µM ([4]; batch_name=ASAP-0010715-002) was 106%, the remaining activity at 10 µM ([5]; batch_name=ASAP-0010715-002) was 76% and the remaining activity at 10 µM ([6]; batch_name=ASAP-0010715-002) was 73%. The remaining activity at 10 µM ([7]; batch_name=ASAP-0010715-002) was 92%, the remaining activity at 10 µM ([8]; batch_name=ASAP-0010715-002) was 82% and the remaining activity at 10 µM ([9]; batch_name=ASAP-0010715-002) was 84%. The remaining activity at 10 µM ([10]; batch_name=ASAP-0010715-002) was 120%, the remaining activity at 10 µM ([11]; batch_name=ASAP-0010715-002) was 94% and the solubility_mean [12] was 53 µM (≈ 22.8 µg/mL).

`CC(C)[C@@H](Nc1ncnc2[nH]c(-c3cnn(C)c3C#N)cc12)c1ccc2c(n1)OCCO2` [ASAP-0010716] gave a logd [1] of 3.9, a remaining activity at 10 µM ([2]; batch_name=ASAP-0010716-002) of 104% and a remaining activity at 10 µM ([3]; batch_name=ASAP-0010716-002) of 101%. The remaining activity at 10 µM ([4]; batch_name=ASAP-0010716-002) was 99%, the remaining activity at 10 µM ([5]; batch_name=ASAP-0010716-002) was 86% and the remaining activity at 10 µM ([6]; batch_name=ASAP-0010716-002) was 82%. The remaining activity at 10 µM ([7]; batch_name=ASAP-0010716-002) was 93%, the remaining activity at 10 µM ([8]; batch_name=ASAP-0010716-002) was 93% and the remaining activity at 10 µM ([9]; batch_name=ASAP-0010716-002) was 89%. For the same molecule, the remaining activity at 10 µM ([10]; batch_name=ASAP-0010716-002) was 102%, the remaining activity at 10 µM ([11]; batch_name=ASAP-0010716-002) was 100% and the solubility_mean [12] was 50 µM (≈ 21.5 µg/mL).
